Consider one molecule from ChEMBL document CHEMBL5113550, “Optimization of Pyrimidine Compounds as Potent JAK1 Inhibitors and the Discovery of R507 as a Clinical Candidate” (ACS Med Chem Lett, 2022).

Bounds are passed on as bounds.

Series [1] concerns the target T1, JAK3/JAK1 (Homo sapiens, UniProt P23458+P52333). As to the kind of experiment: Inhibition of JAK1/JAK3 in human primary T-cells assessed as reduction of IL-2 stimulated STAT5 phosphorylation preincubated for 1 hr followed by IL-2 stimulation for 15 mins by FACS method. In kind it is cell-based, T-cell.
A short description of series [2]: Inhibition of IL-2 stimulated IFN-gamma production in BALB/c mouse at 40 mg/kg, po pretreated for 30 mins followed by IL-2 stimulation and measured after 4 hrs by ELISA. As to conditions: time 4.5 hrs. In kind it is functional.
Series [3] deals with T2, Tyrosine-protein kinase JAK2 (Homo sapiens, UniProt O60674). The series can be described thus: Inhibition of JAK2 signaling pathway in human CHEP cells assessed as inhibition of EPO-induced cell survival preincubated for 1 hr followed by EPO addition and measured after 48 hrs by CellTiter-Glo luminescent assay. The format is toxicity, cell-based. On the technique in general: In ATP-based viability assays light output follows the ATP content of the culture.
T2 sequence (O60674 whole entry): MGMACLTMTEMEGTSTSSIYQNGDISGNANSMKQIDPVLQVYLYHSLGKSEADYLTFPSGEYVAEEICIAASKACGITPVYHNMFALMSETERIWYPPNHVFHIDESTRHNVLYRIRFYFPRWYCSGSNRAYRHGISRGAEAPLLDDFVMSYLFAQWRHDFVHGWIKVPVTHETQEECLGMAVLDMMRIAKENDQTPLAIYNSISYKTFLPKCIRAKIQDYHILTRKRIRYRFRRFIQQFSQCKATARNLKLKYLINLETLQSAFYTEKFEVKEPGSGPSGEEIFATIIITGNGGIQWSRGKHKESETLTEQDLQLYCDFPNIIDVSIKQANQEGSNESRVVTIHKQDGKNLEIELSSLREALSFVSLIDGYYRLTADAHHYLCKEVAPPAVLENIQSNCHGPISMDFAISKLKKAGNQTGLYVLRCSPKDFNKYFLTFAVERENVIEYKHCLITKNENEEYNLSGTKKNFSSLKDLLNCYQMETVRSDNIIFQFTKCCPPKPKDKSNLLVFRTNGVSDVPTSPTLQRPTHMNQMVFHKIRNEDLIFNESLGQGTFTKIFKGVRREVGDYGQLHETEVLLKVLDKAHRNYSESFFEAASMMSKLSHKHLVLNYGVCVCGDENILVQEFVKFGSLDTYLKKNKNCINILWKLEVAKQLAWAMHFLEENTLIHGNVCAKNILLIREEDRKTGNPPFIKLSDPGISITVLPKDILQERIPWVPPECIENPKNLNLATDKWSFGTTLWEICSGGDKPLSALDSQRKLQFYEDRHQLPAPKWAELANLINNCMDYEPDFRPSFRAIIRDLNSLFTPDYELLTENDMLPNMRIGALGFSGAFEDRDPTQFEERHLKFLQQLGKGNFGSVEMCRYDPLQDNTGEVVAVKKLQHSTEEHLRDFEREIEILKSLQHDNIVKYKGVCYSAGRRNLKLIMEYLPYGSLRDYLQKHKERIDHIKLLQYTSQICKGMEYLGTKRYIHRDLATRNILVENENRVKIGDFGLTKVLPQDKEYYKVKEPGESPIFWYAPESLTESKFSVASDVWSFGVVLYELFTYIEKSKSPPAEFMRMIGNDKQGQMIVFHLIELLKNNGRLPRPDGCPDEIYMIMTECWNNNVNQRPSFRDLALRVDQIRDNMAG

The nature of series [4]: Inhibition of IL-2 stimulated IFN-gamma production in BALB/c mouse at 5 mg/kg, po pretreated for 30 mins followed by IL-2 stimulation and measured after 4 hrs by ELISA. The format is functional. The settings on record: time 4.5 hrs. In general terms: ELISA stands for enzyme-linked immunosorbent assay.
Series [5] concerns the target T3, Cytochrome P450 3A4 (Homo sapiens, UniProt P08684). As to the kind of experiment: Inhibition of CYP3A4 (unknown origin) in absence of NADPH. In kind it is ADME.
Series [6] has as its target T3, Cytochrome P450 3A4. As to the kind of experiment: Inhibition of CYP3A4 (unknown origin) in presence of NADPH. In kind it is ADME.
In another series the target is T4, Cytochrome P450 1A2 (Homo sapiens, UniProt P05177).
T4 sequence (P05177 whole entry): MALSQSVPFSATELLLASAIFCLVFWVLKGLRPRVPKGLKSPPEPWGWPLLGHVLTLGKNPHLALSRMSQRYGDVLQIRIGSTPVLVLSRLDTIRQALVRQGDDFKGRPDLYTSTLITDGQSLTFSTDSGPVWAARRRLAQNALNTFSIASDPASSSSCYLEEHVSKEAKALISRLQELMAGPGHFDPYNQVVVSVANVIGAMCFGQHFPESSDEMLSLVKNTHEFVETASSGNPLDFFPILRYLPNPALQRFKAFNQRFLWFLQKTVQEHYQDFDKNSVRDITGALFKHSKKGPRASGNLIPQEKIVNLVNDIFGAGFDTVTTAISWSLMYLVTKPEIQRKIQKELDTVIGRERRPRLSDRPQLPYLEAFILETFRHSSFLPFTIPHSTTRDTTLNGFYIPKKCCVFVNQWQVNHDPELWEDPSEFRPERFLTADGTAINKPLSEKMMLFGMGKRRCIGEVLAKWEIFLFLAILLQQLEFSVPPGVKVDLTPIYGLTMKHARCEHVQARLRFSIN
The series can be described thus: Inhibition of CYP1A2 (unknown origin). The format is ADME.

Series [7] concerns the target Tyrosine-protein kinase JAK1 (Homo sapiens, UniProt P23458). As to the kind of experiment: Inhibition of human recombinant GST-tagged JAK1 catalytic domain (866 to 1154 residues) expressed in baculovirus expression system by Z'-lyte assay.
The target of series [8] is T2, Tyrosine-protein kinase JAK2. The series can be described thus: Inhibition of human recombinant GST-tagged JAK2 catalytic domain (809 to 1153 residues) expressed in baculovirus expression system by Z'-lyte assay. The format is toxicity.
Series [9] concerns the target T5, Tyrosine-protein kinase JAK3 (Homo sapiens, UniProt P52333).
T5 sequence (P52333 whole entry): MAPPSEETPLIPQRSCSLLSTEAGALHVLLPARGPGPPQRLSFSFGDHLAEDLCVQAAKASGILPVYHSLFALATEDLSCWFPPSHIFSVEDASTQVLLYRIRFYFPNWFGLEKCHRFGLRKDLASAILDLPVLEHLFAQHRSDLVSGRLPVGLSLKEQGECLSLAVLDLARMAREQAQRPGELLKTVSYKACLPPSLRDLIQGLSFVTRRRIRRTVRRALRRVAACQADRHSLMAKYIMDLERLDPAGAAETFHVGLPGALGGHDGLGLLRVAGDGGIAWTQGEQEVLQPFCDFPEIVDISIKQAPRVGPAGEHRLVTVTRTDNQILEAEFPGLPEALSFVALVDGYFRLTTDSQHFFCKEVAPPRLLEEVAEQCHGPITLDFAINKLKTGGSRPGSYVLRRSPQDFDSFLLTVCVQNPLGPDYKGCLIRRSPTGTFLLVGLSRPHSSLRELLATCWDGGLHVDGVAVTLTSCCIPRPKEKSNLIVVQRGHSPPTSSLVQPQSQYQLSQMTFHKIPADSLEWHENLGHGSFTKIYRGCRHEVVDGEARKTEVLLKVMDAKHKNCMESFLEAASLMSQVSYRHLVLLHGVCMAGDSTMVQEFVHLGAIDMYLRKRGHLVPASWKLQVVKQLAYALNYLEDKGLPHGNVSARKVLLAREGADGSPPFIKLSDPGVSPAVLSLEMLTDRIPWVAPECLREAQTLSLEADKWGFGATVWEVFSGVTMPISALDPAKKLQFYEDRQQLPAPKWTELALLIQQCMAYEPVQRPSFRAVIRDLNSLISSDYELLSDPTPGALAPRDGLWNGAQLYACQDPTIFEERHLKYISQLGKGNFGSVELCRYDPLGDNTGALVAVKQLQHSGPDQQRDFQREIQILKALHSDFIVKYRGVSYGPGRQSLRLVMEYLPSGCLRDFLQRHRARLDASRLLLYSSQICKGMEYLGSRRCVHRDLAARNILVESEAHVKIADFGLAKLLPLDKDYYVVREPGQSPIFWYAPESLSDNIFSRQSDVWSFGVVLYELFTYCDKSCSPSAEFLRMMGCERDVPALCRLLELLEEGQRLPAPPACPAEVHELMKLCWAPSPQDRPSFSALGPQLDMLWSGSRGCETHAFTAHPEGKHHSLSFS
As to the kind of experiment: Inhibition of human recombinant GST-tagged JAK3 catalytic domain (781 to 1124 residues) expressed in baculovirus expression system by Z'-lyte assay.

Series [10] concerns the target Non-receptor tyrosine-protein kinase TYK2 (Homo sapiens, UniProt P29597). As to the kind of experiment: Inhibition of human recombinant N-terminal GST-tagged TYK2 (833 to 1187 residues) expressed in baculovirus expression system by Z'-lyte assay.
The target in series [11] is T1, JAK3/JAK1. The series can be described thus: Inhibition of JAK1/JAK3 signaling pathway in human primary T-cells assessed as reduction of IL-2 induced cell proliferation. In kind it is cell-based.
The target in another series is JAK1/TYK2 (Homo sapiens, UniProt P23458+P29597). As to the kind of experiment: Inhibition of JAK1/TYK2 signaling pathway in human primary T-cells assessed as reduction of IFN-alpha induced STAT1 phosphorylation. The format is cell-based, T-cell.
Sequence of JAK1/TYK2 (P23458 whole entry): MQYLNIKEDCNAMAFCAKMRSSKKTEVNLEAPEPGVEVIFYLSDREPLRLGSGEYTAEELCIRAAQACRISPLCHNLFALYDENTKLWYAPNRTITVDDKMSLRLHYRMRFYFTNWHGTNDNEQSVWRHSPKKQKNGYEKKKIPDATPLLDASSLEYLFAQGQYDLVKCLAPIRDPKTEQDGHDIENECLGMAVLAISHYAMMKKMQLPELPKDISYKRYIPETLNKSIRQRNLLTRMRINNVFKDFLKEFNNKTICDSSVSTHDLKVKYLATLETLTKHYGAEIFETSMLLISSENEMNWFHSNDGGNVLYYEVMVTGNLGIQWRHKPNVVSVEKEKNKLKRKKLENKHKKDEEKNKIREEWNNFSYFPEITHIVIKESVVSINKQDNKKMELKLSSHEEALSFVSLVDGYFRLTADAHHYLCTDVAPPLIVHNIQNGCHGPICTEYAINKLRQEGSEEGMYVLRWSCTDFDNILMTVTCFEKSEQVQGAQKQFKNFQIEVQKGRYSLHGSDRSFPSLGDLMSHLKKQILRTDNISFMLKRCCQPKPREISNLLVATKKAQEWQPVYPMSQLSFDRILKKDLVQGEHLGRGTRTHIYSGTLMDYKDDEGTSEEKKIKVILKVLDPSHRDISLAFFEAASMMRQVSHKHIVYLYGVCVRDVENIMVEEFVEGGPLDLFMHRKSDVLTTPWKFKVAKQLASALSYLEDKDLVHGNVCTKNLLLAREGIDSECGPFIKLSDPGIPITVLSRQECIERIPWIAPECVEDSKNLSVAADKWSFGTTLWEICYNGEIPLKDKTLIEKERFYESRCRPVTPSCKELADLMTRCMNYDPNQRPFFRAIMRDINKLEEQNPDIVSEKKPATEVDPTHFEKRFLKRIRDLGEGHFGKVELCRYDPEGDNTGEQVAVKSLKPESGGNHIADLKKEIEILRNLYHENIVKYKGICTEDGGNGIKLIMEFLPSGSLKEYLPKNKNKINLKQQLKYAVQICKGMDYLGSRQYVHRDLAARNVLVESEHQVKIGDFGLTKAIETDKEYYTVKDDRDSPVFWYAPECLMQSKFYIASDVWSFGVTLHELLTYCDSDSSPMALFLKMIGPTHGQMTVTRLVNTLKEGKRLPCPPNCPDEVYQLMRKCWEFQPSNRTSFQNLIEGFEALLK
Sequence of JAK1/TYK2 (P29597 whole entry): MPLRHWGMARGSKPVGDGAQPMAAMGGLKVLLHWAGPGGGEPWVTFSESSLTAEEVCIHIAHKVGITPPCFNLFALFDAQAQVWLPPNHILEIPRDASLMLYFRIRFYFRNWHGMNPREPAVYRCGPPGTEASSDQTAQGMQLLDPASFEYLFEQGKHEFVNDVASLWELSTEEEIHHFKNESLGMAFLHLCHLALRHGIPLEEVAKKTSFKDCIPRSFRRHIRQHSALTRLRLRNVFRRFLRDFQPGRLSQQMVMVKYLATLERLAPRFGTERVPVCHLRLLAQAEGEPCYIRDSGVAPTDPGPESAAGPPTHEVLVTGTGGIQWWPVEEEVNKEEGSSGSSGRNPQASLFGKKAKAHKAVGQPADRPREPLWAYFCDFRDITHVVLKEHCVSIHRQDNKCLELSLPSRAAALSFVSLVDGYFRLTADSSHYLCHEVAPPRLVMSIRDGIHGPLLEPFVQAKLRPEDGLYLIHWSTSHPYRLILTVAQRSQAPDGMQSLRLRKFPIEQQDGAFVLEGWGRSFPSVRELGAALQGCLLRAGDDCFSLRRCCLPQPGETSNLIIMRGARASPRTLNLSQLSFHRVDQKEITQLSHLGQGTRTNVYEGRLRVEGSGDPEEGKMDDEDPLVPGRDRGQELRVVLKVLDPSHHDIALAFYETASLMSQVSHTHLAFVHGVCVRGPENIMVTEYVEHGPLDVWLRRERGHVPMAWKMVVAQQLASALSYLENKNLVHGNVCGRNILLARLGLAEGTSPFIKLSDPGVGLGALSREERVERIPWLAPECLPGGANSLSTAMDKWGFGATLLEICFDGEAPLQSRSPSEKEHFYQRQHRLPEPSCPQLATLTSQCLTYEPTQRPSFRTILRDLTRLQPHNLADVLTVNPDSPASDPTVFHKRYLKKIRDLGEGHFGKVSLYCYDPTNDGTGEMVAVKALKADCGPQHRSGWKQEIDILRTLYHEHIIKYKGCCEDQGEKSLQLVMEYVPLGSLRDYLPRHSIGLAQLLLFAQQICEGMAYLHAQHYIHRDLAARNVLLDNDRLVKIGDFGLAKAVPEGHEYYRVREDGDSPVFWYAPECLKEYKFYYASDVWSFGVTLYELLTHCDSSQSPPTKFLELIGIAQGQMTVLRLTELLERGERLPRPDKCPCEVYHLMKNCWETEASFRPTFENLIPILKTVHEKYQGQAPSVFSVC
Series [12] has as its target T2, Tyrosine-protein kinase JAK2. As to the kind of experiment: Inhibition of JAK2 signaling pathway in human UKE-1 cells assessed as reduction of cell proliferation. The format is toxicity, cell-based.
The next series concerns the target JAK2/TYK2 (Homo sapiens, UniProt O60674+P29597). As to the kind of experiment: Inhibition of JAK2/TYK2 signaling pathway in human primary T-cells assessed as reduction of IL-12 induced STAT4 phosphorylation. In kind it is cell-based, T-cell.
The next series deals with JAK2/JAK1 (Homo sapiens, UniProt O60674+P23458). The series can be described thus: Inhibition of JAK1/JAK2 signaling pathway in human U-937 cells assessed as reduction of IFN-gamma induced ICAM1 expression. In kind it is cell-based.
Sequence of JAK2/JAK1 (P23458 whole entry): as the sequence (P23458 whole entry) above
Sequence of JAK2/JAK1 (O60674 whole entry): as the sequence (O60674 whole entry) above
Series [13] can be described thus: Inhibition of IL-2 stimulated IFN-gamma production in BALB/c mouse at 20 mg/kg, po pretreated for 30 mins followed by IL-2 stimulation and measured after 4 hrs by ELISA. The format is functional. As to conditions: time 4.5 hrs.
The nature of series [14]: Inhibition of IL-2 stimulated IFN-gamma production in BALB/c mouse at 10 mg/kg, po pretreated for 30 mins followed by IL-2 stimulation and measured after 4 hrs by ELISA. In kind it is functional. As to conditions: time 4.5 hrs.
Series [15] is described as follows: Inhibition of IL-2 stimulated IFN-gamma production in BALB/c mouse at 2.5 mg/kg, po pretreated for 30 mins followed by IL-2 stimulation and measured after 4 hrs by ELISA. The format is functional. The settings on record: time 4.5 hrs.
Series [16] is described as follows: Oral bioavailability in Sprague-Dawley rat 5 mg/kg. In kind it is ADME, organism-based. As to conditions: in vivo.
Series [17] in a line: Clearance in Sprague-Dawley rat 1 mg/kg, iv. The format is ADME, organism-based. As to conditions: in vivo.
The target in series [18] is T1, JAK3/JAK1. As to the kind of experiment: Inhibition of JAK1/JAK3 signaling pathway in human whole blood assessed as reduction of IL-2 induced STAT5 phosphorylation. In kind it is tissue-based.

T1 sequence (P23458 whole entry, one chain of several): as the sequence (P23458 whole entry) above
T3 sequence (P08684 whole entry): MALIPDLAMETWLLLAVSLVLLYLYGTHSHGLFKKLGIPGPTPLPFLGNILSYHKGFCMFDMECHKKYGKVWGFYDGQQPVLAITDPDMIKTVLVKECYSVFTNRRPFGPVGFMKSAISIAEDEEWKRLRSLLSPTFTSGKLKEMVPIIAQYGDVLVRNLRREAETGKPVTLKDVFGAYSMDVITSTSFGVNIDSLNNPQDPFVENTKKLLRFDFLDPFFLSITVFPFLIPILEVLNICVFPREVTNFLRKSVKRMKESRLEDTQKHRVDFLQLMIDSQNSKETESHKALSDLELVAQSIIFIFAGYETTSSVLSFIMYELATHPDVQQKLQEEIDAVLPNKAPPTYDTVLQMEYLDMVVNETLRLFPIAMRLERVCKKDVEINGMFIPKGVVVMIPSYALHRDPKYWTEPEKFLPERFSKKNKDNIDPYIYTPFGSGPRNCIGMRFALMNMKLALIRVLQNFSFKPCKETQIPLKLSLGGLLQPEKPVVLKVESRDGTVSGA
Sequence of Non-receptor tyrosine-protein kinase TYK2 (P29597 whole entry, the tested form may be a part): as the sequence (P29597 whole entry) above
Sequence of JAK2/TYK2 (O60674 whole entry): as the sequence (O60674 whole entry) above
Sequence of JAK2/TYK2 (P29597 whole entry): as the sequence (P29597 whole entry) above
Sequence of Tyrosine-protein kinase JAK1 (P23458 whole entry, the tested form may be a part): as the sequence (P23458 whole entry) above

One may read the IC50 as the concentration that inhibits the measured activity by half. As a reminder, the inhibition in vivo is the drop in the measured response relative to a control, in per cent. As a reminder, the Ki is the dissociation constant of the complex between target and ligand, obtained from inhibition or displacement. What is called bioavailability is dose-corrected exposure relative to a reference, in per cent. Read a low bioavailability as poor availability. The clearance is the volume of plasma or blood freed of the substance per unit of time. High values mean a high capacity for elimination, low ones a low capacity for elimination. Regarding `COc1cc(Nc2ncc(C)c(Nc3ccc4oc(=O)[nH]c4c3)n2)cc(C)c1F` [IFIDANCITINIB], the 50% inhibitory concentration (IC50) is 20 nM at JAK3/JAK1 [1]; 490 nM in [3]; over 10000 nM at Cytochrome P450 3A4 [5]; over 10000 nM on Cytochrome P450 3A4 [6]; 2.1 nM in series [7]; 12 nM in [8]. In addition, the IC50 was determined as 923 nM in series [9]; 12 nM in series [10]; 20 nM on JAK3/JAK1 [11]; 8 nM at JAK1/TYK2; 915 nM in series [12]; 1190 nM at JAK2/TYK2. The half-maximal inhibitory concentration (IC50) on JAK2/JAK1 was determined as 417 nM; at JAK3/JAK1 [18], 451 nM. The inhibition in vivo at 40 mg/kg in [2] amounted to 92%. Further, the inhibition in vivo at 5 mg/kg in [4] is 43%. In addition, the Ki on Cytochrome P450 1A2 worked out at 1000 nM. For the same molecule, in series [13], the inhibition in vivo at 20 mg/kg was 94%. Further, the inhibition in vivo at 10 mg/kg in series [14] is 75%. The inhibition in vivo at 2.5 mg/kg in series [15] worked out at 8%. The molecule further gave a bioavailability in series [16] of 28%. The molecule also came in with a clearance in [17] of 47 mL/min/kg.
